Values quoted from earlier work in PMC5863612 (Chemical Science, 2017).

System: βPGM
Conditions: for Km: previously recorded result

Compound: O=P(O)(O)OC[C@H]1O[C@@H](OP(=O)(O)O)[C@H](O)[C@@H](O)[C@@H]1O [βG16BP, β-glucose-1,6-bisphosphate]
- Km: 0.72 ± 0.04 µM

Compound: O=P(O)(O)O[C@@H]1O[C@H](CO)[C@@H](O)[C@H](O)[C@H]1O [βG1P, β-D-glucose 1-phosphate]
- Km: 14.7 µM

Compound: fluorine
- Inhibition of βPGM (reported range): low millimolar range
